Measurements as given in patent publication US5366726A (priority 1992, dated 1994).

Columns and labels:
Pneumocystis carinii [1] = conditions: in vivo; cited from earlier work
Pneumocystis carinii [2] = conditions: human, in vivo; cited from earlier work
[3] = TMP-SMX oral or parenteral; pentamidine isethionate parenteral; cited from earlier work
Pneumocystis carinii [4] = experiment: Example 8: randomized clinical trial, prevention of PCP; type: in vivo, human; conditions: AZT use

In the case of `NCCC[C@](N)(C(=O)O)C(F)F` [DFMO, α-difluoromethylornithine], the “efficacy in rat PCP model” value (Pneumocystis carinii [1]) is given as “not efficacious”.

For `COc1cc(NCc2ccc3nc(N)nc(N)c3c2C)cc(OC)c1OC` [trimetrexate], the “relapse rates within one month” value (Pneumocystis carinii [2]) is given as “high”.

For `N=C(N)c1ccc(OCCCCCOc2ccc(C(=N)N)cc2)cc1` [pentamidine isethionate], the “patients developing severe toxicity requiring discontinuation” value [3] is given as “approximately 50%”.

In the case of `Cc1cn([C@H]2C[C@H](N=[N+]=[N-])[C@@H](CO)O2)c(=O)[nH]c1=O` [zidovudine], the “independent reduction of PCP risk, Cox models” value (Pneumocystis carinii [4]) is reported as “two-fold”.
